Entries after “also recorded” stand apart in the source; their conditions may differ.
Assays:
[1] = biological target: T1, CK2A2 (Homo sapiens, UniProt P19784); test: DSF; type: binding;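 note: compound tested at 10 µM with 2 µM protein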
T1 construct: purchased in-house DSF panel (SGC Frankfurt)
Procedure: (§2) Recombinant protein kinase domains with a concentration of 2 μM were mixed with a 10 μM compound solution in DMSO, 20 mM HEPES, pH 7.5, and 500 mM NaCl. SYPRO Orange (5000×, Invitrogen) was added as a fluorescence probe (1 µl per mL). Subsequently, temperature-dependent protein unfolding profiles were measured, using the QuantStudio™ 5 realtime PCR machine (Thermo Fisher, Waltham, MA, USA). […] The temperature was raised with a step rate of 3 °C per minute. Data points were analyzed with the internal software (Thermal Shift SoftwareTM Version 1.4, Thermo Fisher) using the Boltzmann equation to determine the inflection point of the transition curve [56]. Differences in melting temperature are given as ΔTm values in °C. Measurements were performed in duplicates.

[2] = biological target: T2, STK17A (Homo sapiens, UniProt Q9UEE5); test: DSF; type: binding
T2 construct: purchased in-house DSF panel (SGC Frankfurt)
T2 sequence (Q9UEE5 61-321): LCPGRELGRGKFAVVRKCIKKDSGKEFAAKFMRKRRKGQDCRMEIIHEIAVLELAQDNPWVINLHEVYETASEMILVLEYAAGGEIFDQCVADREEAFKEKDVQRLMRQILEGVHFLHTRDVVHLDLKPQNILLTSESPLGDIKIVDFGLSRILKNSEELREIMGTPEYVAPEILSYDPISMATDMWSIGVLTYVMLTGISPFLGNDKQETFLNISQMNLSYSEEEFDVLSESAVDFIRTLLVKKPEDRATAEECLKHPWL
Procedure: as §2

[3] = biological target: T3, EPHA4 (Homo sapiens, UniProt P54764); test: DSF; type: binding
T3 construct: purchased in-house DSF panel (SGC Frankfurt)
T3 sequence (P54764 606-890): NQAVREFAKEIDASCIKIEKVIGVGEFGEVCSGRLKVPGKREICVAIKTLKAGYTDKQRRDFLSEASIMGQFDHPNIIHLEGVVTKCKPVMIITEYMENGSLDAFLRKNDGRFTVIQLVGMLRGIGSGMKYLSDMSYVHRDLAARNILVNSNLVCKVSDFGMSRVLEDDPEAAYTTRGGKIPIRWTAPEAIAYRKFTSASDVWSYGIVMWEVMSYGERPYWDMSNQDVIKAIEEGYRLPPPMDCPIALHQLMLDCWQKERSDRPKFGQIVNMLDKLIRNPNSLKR
Procedure: (§1) Measurements were performed in duplicates.

[4] = biological target: T4, HIPK2 (Homo sapiens, UniProt Q9H2X6); test: DSF; type: binding
T4 construct: purchased in-house DSF panel (SGC Frankfurt)
Procedure: as §1

[5] = biological target: T5, NEK2 (Homo sapiens, UniProt P51955); test: DSF; type: binding
T5 construct: purchased in-house DSF panel (SGC Frankfurt)
T5 sequence (P51955 1-271): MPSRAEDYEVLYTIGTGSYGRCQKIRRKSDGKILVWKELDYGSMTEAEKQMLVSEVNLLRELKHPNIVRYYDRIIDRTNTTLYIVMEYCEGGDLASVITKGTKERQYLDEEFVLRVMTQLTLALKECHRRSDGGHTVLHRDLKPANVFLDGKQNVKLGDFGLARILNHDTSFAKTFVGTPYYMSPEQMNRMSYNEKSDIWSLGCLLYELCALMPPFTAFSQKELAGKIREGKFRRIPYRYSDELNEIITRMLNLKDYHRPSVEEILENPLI
Procedure: as §1

[6] = biological target: T6, DYRK1A (Homo sapiens, UniProt Q13627); test: DSF; type: binding
T6 construct: purchased in-house DSF panel (SGC Frankfurt)
Procedure: as §2

[7] = biological target: T7, MAPK10 (Homo sapiens, UniProt P53779); test: DSF; type: binding;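 note: compound tested at 10 µM with 2 µM protein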
T7 construct: purchased in-house DSF panel (SGC Frankfurt)
Procedure: as §2

[8] = biological target: T8, STK6 (Homo sapiens, UniProt O14965); test: DSF; type: binding
T8 construct: purchased in-house DSF panel (SGC Frankfurt)
T8 sequence (O14965 122-403): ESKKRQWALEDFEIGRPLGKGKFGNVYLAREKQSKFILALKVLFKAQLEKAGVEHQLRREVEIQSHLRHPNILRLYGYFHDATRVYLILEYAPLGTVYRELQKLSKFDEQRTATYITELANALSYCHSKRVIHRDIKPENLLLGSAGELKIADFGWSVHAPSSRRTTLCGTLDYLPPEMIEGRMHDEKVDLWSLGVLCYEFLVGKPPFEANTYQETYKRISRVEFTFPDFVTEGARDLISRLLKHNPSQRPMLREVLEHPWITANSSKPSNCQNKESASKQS
Procedure: as §2

[9] = system: HCT116-FUCCI cells; test: FUCCI cell cycle assay and viability assessment; type: cell-based; conditions: for effect on the cell cycle (FUCCI): 1, 5, 10 µM (milciclib 1, 10 µM); for effect on the cell cycle (FUCCI) / pyknosed nuclei: 24 h; for pyknosed nuclei: average; for effect on cell count: 1, 5, 10 µM vs DMSO 0.1 %; for cells compared to the control: after 72 h, vs DMSO 0.1 %
Procedure: This technology enables the detection of cell cycle states (G1, G2/M, or S phase) on a single cell level. Additionally, a viability assessment, as described by Tjaden et. al., was performed using Hoechst33342 as a nuclear marker. […] At 10 µM of the same compound, the pyknosed nuclei rate was even higher, on average 45% (Figure 9C). An increase in cells including a pyknosed nucleus indicate apoptotic cell death, due to typical morphological changes like DNA condensation. […] Milciclib is a published CDK2 inhibitor and was used as a reference compound [55]. […] At later time points, the G2/M phase arrest was no longer detectable (Table S7). This can be explained due to the increasing amount of apoptotic cells.
To validate the influence of the compounds on the cell cycle, a florescent ubiquitination-based cell cycle indicator (FUCCI) assay was performed as described previously. In Brief, HCT116-FUCCI cells, stably expressing the FUCCI system, introduced by the Sleeping Beauty transposon system, were seeded at a density of 1250 cells per well in a 384 well plate (Cell culture microplate, PS, f-bottom, µClear®, 781091, Greiner, Frickenhausen, Germany) in culture medium (50 µL per well) and stained additionally with 60 nM Hoechst33342 (Thermo Scientific). Fluorescence and cellular shape were measured before and after compound treatment for 72 h every 12 h using the CQ1 high-content confocal microscope (Yokogawa, Tokyo, Japan). Compounds were added directly to the cells at three different concentrations (1 µM, 5 µM and 10 µM). The following parameters were used for image acquisition: Ex 405 nm/Em 447/60 nm, 500ms, 50%; Ex 561 nm/Em 617/73 nm, 100 ms, 40%; Ex 488/Em 525/50 nm, 50 ms, 40%; Ex 640 nm/Em 685/40, 50 ms, 20 %; bright field, 300ms, 100% transmission, one centered field per well, 7 z stacks per well with 55 µm spacing. Analysis of images was performed using the CellPathfinder software (Yokogawa). The cell count was normalized against the cell count of cells treated with 0.1% DMSO. All normal gated cells were further classified in cells containing healthy, fragmented or pyknosed nuclei. […] Error bars show SEM of biological duplicates. All data can be found in Table S7.

[10] = biological target: T9, AAK1 (Homo sapiens, UniProt Q2M2I8); test: DSF; type: binding
T9 construct: purchased in-house DSF panel (SGC Frankfurt)
Procedure: as §2

[11] = biological target: T10, MAP2K1 (Homo sapiens, UniProt Q02750); test: DSF; type: binding
T10 construct: purchased in-house DSF panel (SGC Frankfurt)
Procedure: as §2

[12] = biological target: T11, ULK1 (Homo sapiens, UniProt O75385); test: DSF; type: binding
T11 construct: purchased in-house DSF panel (SGC Frankfurt)
T11 sequence (O75385 1-283): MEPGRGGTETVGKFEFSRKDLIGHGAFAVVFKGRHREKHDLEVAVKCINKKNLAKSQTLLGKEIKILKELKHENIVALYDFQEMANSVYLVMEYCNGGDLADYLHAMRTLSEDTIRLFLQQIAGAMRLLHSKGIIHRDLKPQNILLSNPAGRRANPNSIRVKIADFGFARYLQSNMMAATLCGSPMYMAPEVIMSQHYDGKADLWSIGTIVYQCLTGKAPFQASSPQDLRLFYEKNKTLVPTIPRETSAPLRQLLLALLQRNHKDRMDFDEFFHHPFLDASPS
Procedure: as §1

T10 sequence (Q02750 68-361): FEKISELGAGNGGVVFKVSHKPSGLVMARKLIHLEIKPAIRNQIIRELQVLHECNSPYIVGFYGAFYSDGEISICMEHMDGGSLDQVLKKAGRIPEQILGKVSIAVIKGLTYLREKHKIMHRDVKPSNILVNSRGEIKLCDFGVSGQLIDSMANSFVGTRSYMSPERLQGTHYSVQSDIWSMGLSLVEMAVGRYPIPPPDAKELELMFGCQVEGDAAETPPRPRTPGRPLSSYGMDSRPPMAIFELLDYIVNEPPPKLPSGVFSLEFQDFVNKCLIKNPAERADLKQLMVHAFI
T1 sequence (P19784 whole entry): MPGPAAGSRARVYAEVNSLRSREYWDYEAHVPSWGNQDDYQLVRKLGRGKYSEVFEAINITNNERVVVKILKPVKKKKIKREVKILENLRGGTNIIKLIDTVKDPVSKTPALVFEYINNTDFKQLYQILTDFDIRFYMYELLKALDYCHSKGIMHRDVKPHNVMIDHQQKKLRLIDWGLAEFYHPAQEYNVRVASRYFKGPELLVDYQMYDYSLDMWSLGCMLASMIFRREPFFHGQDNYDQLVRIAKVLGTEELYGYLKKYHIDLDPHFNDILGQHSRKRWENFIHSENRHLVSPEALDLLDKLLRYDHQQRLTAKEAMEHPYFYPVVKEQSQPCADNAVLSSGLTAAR
T9 sequence (Q2M2I8 27-365): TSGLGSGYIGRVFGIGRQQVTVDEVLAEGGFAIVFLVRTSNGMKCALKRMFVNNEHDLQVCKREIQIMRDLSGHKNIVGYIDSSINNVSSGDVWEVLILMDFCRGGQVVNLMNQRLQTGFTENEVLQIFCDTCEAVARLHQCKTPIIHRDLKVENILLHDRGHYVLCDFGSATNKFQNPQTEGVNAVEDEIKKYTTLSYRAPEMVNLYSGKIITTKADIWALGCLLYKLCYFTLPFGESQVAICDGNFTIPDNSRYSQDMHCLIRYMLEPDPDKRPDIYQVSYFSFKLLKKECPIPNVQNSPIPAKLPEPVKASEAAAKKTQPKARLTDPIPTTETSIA
T7 sequence (P53779 whole entry): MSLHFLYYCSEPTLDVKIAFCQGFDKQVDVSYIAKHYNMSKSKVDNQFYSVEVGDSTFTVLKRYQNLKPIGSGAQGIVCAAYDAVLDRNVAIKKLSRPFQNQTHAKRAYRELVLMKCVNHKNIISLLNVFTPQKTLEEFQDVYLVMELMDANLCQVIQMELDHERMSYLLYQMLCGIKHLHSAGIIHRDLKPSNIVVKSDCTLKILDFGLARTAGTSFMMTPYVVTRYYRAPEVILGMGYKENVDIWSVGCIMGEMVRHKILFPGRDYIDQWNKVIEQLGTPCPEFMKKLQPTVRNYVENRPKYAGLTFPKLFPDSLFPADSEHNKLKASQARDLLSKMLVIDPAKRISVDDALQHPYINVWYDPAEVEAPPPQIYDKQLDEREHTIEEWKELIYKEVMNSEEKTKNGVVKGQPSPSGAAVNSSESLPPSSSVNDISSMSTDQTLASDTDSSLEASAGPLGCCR
T4 sequence (Q9H2X6 199-527): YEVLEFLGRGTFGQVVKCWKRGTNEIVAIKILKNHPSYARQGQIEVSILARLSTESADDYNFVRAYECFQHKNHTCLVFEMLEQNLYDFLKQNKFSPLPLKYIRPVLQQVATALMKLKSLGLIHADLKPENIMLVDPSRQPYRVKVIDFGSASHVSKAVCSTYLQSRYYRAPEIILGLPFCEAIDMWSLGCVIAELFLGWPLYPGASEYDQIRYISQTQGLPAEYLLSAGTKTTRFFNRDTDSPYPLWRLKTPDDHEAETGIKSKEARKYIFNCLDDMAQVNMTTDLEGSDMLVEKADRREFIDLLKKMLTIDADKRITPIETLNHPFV

| SMILES | ΔTm CK2A2 [1] [°C] | ΔTm STK17A [2] [°C] | ΔTm EPHA4 [3] [°C] | ΔTm HIPK2 [4] [°C] | ΔTm NEK2 [5] [°C] | ΔTm DYRK1A [6] [°C] | ΔTm MAPK10 [7] [°C] | ΔTm STK6 [8] [°C] | effect on the cell cycle (FUCCI) [9] | ΔTm AAK1 [10] [°C] | ΔTm MAP2K1 [11] [°C] | ΔTm ULK1 [12] [°C] | pyknosed nuclei ([9]; 1 µM) [%] | pyknosed nuclei ([9]; 10 µM) [%] | effect on cell count [9] | cells compared to the control [9] |
| --- | --- | --- | --- | --- | --- | --- | --- | --- | --- | --- | --- | --- | --- | --- | --- | --- |
| CC(C)OC(=O)c1cc(Nc2ccnc(NCc3ccc(NC(=O)OC(C)(C)C)cc3)n2)n[nH]1 [42d, isopropyl 3-((2-((4-((tert-butoxycarbonyl)amino)benzyl)amino)pyrimidin-4-yl)amino)-1H-pyrazole-5-carboxylate] | 1.1 | -0.4 | -0.1 | -0.2 | -1.4 | 0.0 | -3.0 | 3.4 | accumulation of cells in G2/M phases | 0.5 |  |  |  |  |  |  |
| N#CCc1ccc(Nc2nccc(Nc3cc(C4CC4)[nH]n3)n2)cc1 [compound 1, reference compound] | 8.5 | 9.6 |  |  |  | 8.2 | 7.2 | 14.3 | no effect on the cell cycle | 13.8 | 1.4 | 15.5 |  |  |  |  |
| COC(=O)c1cc(Nc2ccnc(NCCOCCNC(=O)OC(C)(C)C)n2)[nH]n1 [21d, methyl 5-((2-((2-(2-((tert-butoxycarbonyl)amino)ethoxy)ethyl)amino)pyrimidin-4-yl)amino)-1H-pyrazole-3-carboxylate] | 1.8 | 2.2 |  |  |  | 1.2 | 2.9 | 3.2 |  | 4.1 | 0.7 | 2.3 |  |  |  |  |
| CC(C)(C)OC(=O)Nc1ccc(CNc2nccc(Nc3cc(C(=O)OC(C)(C)C)[nH]n3)n2)cc1 [43d, tert-butyl 3-((2-((4-((tert-butoxycarbonyl)amino)benzyl)amino)pyrimidin-4-yl)amino)-1H-pyrazole-5-carboxylate] | 1.1 | -0.6 | 0.0 | 0.1 | 2.0 | 1.8 | -1.6 | 4.0 | G2/M phase cell cycle arrest; also recorded: accumulation of cells in G2/M phases | 1.0 |  |  | 10 | 45 | decreased the cell count in a dose-dependent manner | less than 50% |
| COC(=O)c1cc(Nc2ccnc(NCc3ccc(NC(=O)OC(C)(C)C)cc3)n2)[nH]n1 [21i, methyl 5-((2-((4-((tert-butoxycarbonyl)amino)benzyl)amino)pyrimidin-4-yl)amino)-1H-pyrazole-3-carboxylate] | 1.3 | -0.1 |  |  |  | 3.4 | 1.8 | 4.6 | accumulation of cells in G2/M phases | 2.0 | -0.5 | 2.7 |  |  | decreased the cell count | less than 50% |
| CN[C@@H]1C[C@H]2O[C@@](C)([C@@H]1OC)n1c3ccccc3c3c4c(c5c6ccccc6n2c5c31)C(=O)NC4 [staurosporine, reference compound] |  |  | 6.2 | 4.4 | 3.3 |  |  |  |  |  |  | 11.3 |  |  |  |  |
